Test results published in publication PMC5218480 (PLoS ONE, 2017).

Test system: MV-4-11 cells
Experiment: Gene expression microarray analysis (Affymetrix PrimeView) and GSEA
Format: cell-based, human
Set-up: RFU PODN (11730768_x_at) / Fold change /veh PODN (11730768_x_at) / RFU LINC00158 (11744669_a_at) / Fold change /veh LINC00158 (11744669_a_at) / RFU DUSP10 (11751237_a_at) / Fold change /veh DUSP10 (11751237_a_at) / RFU ID3 (11757404_x_at) / Fold change /veh ID3 (11757404_x_at) / RFU PLEKHG5 (11737974_s_at) / Fold change /veh PLEKHG5 (11737974_s_at) / RFU LRRC4B (11730491_at) / Fold change /veh LRRC4B (11730491_at) / RFU GIMAP4 (11747438_a_at) / Fold change /veh GIMAP4 (11747438_a_at) / RFU KRT8 (11758183_x_at) / Fold change /veh KRT8 (11758183_x_at) / RFU CNN1 (11734310_a_at) / Fold change /veh CNN1 (11734310_a_at) / RFU VPS37D (11726825_at) / Fold change /veh VPS37D (11726825_at) / RFU C10orf10 (11716522_x_at) / Fold change /veh C10orf10 (11716522_x_at) / RFU KIR2DL2 /// KIR2DL4 /// KIR2DL5A /// KIR2DL5B /// KIR2DS1 /// KIR2DS2 /// KIR2DS3 /// KIR2DS4 /// KIR3DL3 /// KIR3DL3 /// KIR3DS1 (11738374_at) / Fold change /veh KIR2DL2 /// KIR2DL4 /// KIR2DL5A /// KIR2DL5B /// KIR2DS1 /// KIR2DS2 /// KIR2DS3 /// KIR2DS4 /// KIR3DL3 /// KIR3DL3 /// KIR3DS1 (11738374_at) / RFU C1QL1 (11718748_at) / Fold change /veh C1QL1 (11718748_at) / RFU TMPRSS4 (11747572_a_at) / Fold change /veh TMPRSS4 (11747572_a_at) / RFU HAMP (11756126_x_at) / Fold change /veh HAMP (11756126_x_at) / RFU RNFT2 (11725882_a_at) / Fold change /veh RNFT2 (11725882_a_at) / RFU NR4A2 (11747474_a_at) / Fold change /veh NR4A2 (11747474_a_at) / RFU ABCC12 (11746883_a_at) / Fold change /veh ABCC12 (11746883_a_at) / RFU TMEM136 (11760407_x_at) / Fold change /veh TMEM136 (11760407_x_at) / RFU CLDN22 /// WWC2 (11732394_at) / Fold change /veh CLDN22 /// WWC2 (11732394_at) / RFU HLA-DPB1 (11760878_x_at) / Fold change /veh HLA-DPB1 (11760878_x_at) / RFU SPINT1 (11716480_a_at) / Fold change /veh SPINT1 (11716480_a_at) / RFU GAP43 (11754022_s_at) / Fold change /veh GAP43 (11754022_s_at) / RFU A4GNT (11735810_at) / Fold change /veh A4GNT (11735810_at) / RFU PRB3 (11715151_x_at) / Fold change /veh PRB3 (11715151_x_at) / RFU TUBB4B (11761932_at) / Fold change /veh TUBB4B (11761932_at) / RFU CAPN14 (11732068_a_at) / Fold change /veh CAPN14 (11732068_a_at) / RFU TMCC2 (11721928_a_at) / Fold change /veh TMCC2 (11721928_a_at) / RFU IRGQ (11745062_a_at) / Fold change /veh IRGQ (11745062_a_at) / RFU FAM174B (11720279_a_at) / Fold change /veh FAM174B (11720279_a_at) / RFU TMPRSS4 (11748680_a_at) / Fold change /veh TMPRSS4 (11748680_a_at) / RFU FAM212B (11763350_a_at) / Fold change /veh FAM212B (11763350_a_at) / RFU PLEKHG5 (11743358_a_at) / Fold change /veh PLEKHG5 (11743358_a_at) / RFU ZSCAN30 (11745921_a_at) / Fold change /veh ZSCAN30 (11745921_a_at) / RFU CMKLR1 (11741424_a_at) / Fold change /veh CMKLR1 (11741424_a_at) / RFU LOC101060620 /// MAPK8IP1 (11723275_at) / Fold change /veh LOC101060620 /// MAPK8IP1 (11723275_at) / RFU SPTSSB (11747773_x_at) / Fold change /veh SPTSSB (11747773_x_at) / RFU PRSS12 (11739890_at) / Fold change /veh PRSS12 (11739890_at) / RFU BIN1 (11741810_x_at) / Fold change /veh BIN1 (11741810_x_at) / RFU WNT11 (11732464_a_at) / Fold change /veh WNT11 (11732464_a_at) / RFU C10orf10 (11716521_a_at) / Fold change /veh C10orf10 (11716521_a_at) / RFU C5orf56 (11738089_at) / Fold change /veh C5orf56 (11738089_at) / RFU CYB561 (11721691_x_at) / Fold change /veh CYB561 (11721691_x_at) / RFU ANKRD19P (11752326_a_at) / Fold change /veh ANKRD19P (11752326_a_at) / RFU OR2T12 /// OR2T33 /// OR2T8 (11738714_s_at) / Fold change /veh OR2T12 /// OR2T33 /// OR2T8 (11738714_s_at) / RFU VCAN (11748164_a_at) / Fold change /veh VCAN (11748164_a_at) / RFU JSRP1 (11732532_at) / Fold change /veh JSRP1 (11732532_at) / RFU KRTAP10-11 (11738290_x_at) / Fold change /veh KRTAP10-11 (11738290_x_at) / RFU MYO3A (11730013_a_at) / Fold change /veh MYO3A (11730013_a_at) / RFU EBF3 (11725865_a_at) / Fold change /veh EBF3 (11725865_a_at) / RFU CAMK2N1 (11719241_x_at) / Fold change /veh CAMK2N1 (11719241_x_at) / RFU C5orf56 (11738088_a_at) / Fold change /veh C5orf56 (11738088_a_at) / RFU OLFML3 (11715873_a_at) / Fold change /veh OLFML3 (11715873_a_at) / RFU LOC100653217 /// NTM (11731650_a_at) / Fold change /veh LOC100653217 /// NTM (11731650_a_at) / RFU MAPK11 (11762145_a_at) / Fold change /veh MAPK11 (11762145_a_at) / RFU FIZ1 (11724087_x_at) / Fold change /veh FIZ1 (11724087_x_at) / RFU OASL (11726364_x_at) / Fold change /veh OASL (11726364_x_at) / RFU SOX15 (11748057_x_at) / Fold change /veh SOX15 (11748057_x_at) / RFU CD79A (11719716_a_at) / Fold change /veh CD79A (11719716_a_at) / RFU HIST1H1D (11736915_at) / Fold change /veh HIST1H1D (11736915_at) / RFU CASKIN2 (11723855_a_at) / Fold change /veh CASKIN2 (11723855_a_at) / RFU LOC730098 (11760151_x_at) / Fold change /veh LOC730098 (11760151_x_at) / RFU OR4N2 (11742367_at) / Fold change /veh OR4N2 (11742367_at) / RFU PRRT2 (11749266_a_at) / Fold change /veh PRRT2 (11749266_a_at) / RFU SNX32 (11753110_a_at) / Fold change /veh SNX32 (11753110_a_at) / RFU CDHR5 (11726645_a_at) / Fold change /veh CDHR5 (11726645_a_at) / RFU RCAN1 (11760418_a_at) / Fold change /veh RCAN1 (11760418_a_at) / RFU FAM167A (11723789_a_at) / Fold change /veh FAM167A (11723789_a_at) / RFU FAM26E (11764081_at) / Fold change /veh FAM26E (11764081_at) / RFU ISYNA1 (11749810_s_at) / Fold change /veh ISYNA1 (11749810_s_at) / RFU ACY1 (11761880_at) / Fold change /veh ACY1 (11761880_at) / RFU 11764098_at / Fold change /veh 11764098_at / RFU SAMD14 (11745864_x_at) / Fold change /veh SAMD14 (11745864_x_at) / RFU NPB (11741838_a_at) / Fold change /veh NPB (11741838_a_at) / RFU TMPRSS6 (11731388_a_at) / Fold change /veh TMPRSS6 (11731388_a_at) / RFU KRTAP10-2 (11738614_at) / Fold change /veh KRTAP10-2 (11738614_at) / RFU ARHGAP8 /// PRR5-ARHGAP8 (11727945_x_at) / Fold change /veh ARHGAP8 /// PRR5-ARHGAP8 (11727945_x_at) / RFU KRTAP5-7 /// NADSYN1 (11734609_at) / Fold change /veh KRTAP5-7 /// NADSYN1 (11734609_at) / RFU RASL12 (11751679_a_at) / Fold change /veh RASL12 (11751679_a_at) / RFU CDKN2B (11736163_a_at) / Fold change /veh CDKN2B (11736163_a_at) / RFU PRF1 (11729649_at) / Fold change /veh PRF1 (11729649_at) / RFU, ZNF638 /// ZNF638-IT1 / Fold change vs veh, ZNF638 /// ZNF638-IT1 / RFU, PANK3 / Fold change vs veh, PANK3 / RFU, SH3YL1 / Fold change vs veh, SH3YL1 / RFU, ZEB2 / Fold change vs veh, ZEB2 / RFU, NRIP1 / Fold change vs veh, NRIP1 / RFU, PTTG1IP / Fold change vs veh, PTTG1IP / RFU, CAPN2 / Fold change vs veh, CAPN2 / RFU, MED14 / Fold change vs veh, MED14 / RFU, SNORA58 / Fold change vs veh, SNORA58 / RFU, C1orf63 / Fold change vs veh, C1orf63 / RFU, LRRFIP1 / Fold change vs veh, LRRFIP1 / RFU, NDUFAF7 / Fold change vs veh, NDUFAF7 / RFU, SLC12A2 / Fold change vs veh, SLC12A2 / RFU, IBTK / Fold change vs veh, IBTK / RFU, ESF1 / Fold change vs veh, ESF1 / Fold change vs veh, TMEM50B / RFU, TAOK1 / Fold change vs veh, TAOK1 / RFU, ACBD3 / Fold change vs veh, ACBD3 / RFU, TMA16 / Fold change vs veh, TMA16 / RFU, RWDD3 / Fold change vs veh, RWDD3 / RFU, BCAT1 / Fold change vs veh, BCAT1 / RFU, EDEM3 / Fold change vs veh, EDEM3 / RFU, TMEM33 / Fold change vs veh, TMEM33 / RFU, WDR75 / Fold change vs veh, WDR75 / RFU, AHCTF1 / Fold change vs veh, AHCTF1 / RFU, TFRC / Fold change vs veh, TFRC / RFU, ZDHHC17 / Fold change vs veh, ZDHHC17 / RFU, NOM1 / Fold change vs veh, NOM1 / RFU, ARL8B / Fold change vs veh, ARL8B / RFU, ZBTB11 / Fold change vs veh, ZBTB11 / RFU, TAMM41 / Fold change vs veh, TAMM41 / RFU, KIAA1704 /// LOC100996395 / Fold change vs veh, KIAA1704 /// LOC100996395 / RFU, ING1 / Fold change vs veh, ING1 / RFU, TRMT61B / Fold change vs veh, TRMT61B / RFU, FUBP3 / Fold change vs veh, FUBP3 / RFU, TP53 / Fold change vs veh, TP53 / RFU, TNKS2 / Fold change vs veh, TNKS2 / RFU, ZFP14 / Fold change vs veh, ZFP14 / RFU, ACTR2 / Fold change vs veh, ACTR2 / RFU, PPP3R1 / Fold change vs veh, PPP3R1 / RFU, PIK3R1 / Fold change vs veh, PIK3R1 / RFU, HNRNPA1 / Fold change vs veh, HNRNPA1 / RFU, RNF170 / Fold change vs veh, RNF170 / RFU, ZNF28 / Fold change vs veh, ZNF28 / RFU, RNGTT / Fold change vs veh, RNGTT / RFU, OGT / Fold change vs veh, OGT / RFU, BRD1 / Fold change vs veh, BRD1 / RFU, MARS / Fold change vs veh, MARS / RFU, ZNF655 / Fold change vs veh, ZNF655 / RFU, FAHD1 / Fold change vs veh, FAHD1 / RFU, BDP1 / Fold change vs veh, BDP1 / RFU, LRRCC1 / Fold change vs veh, LRRCC1 / RFU, ARID1A / Fold change vs veh, ARID1A / RFU, ZNF146 / Fold change vs veh, ZNF146 / RFU, ZNF330 / Fold change vs veh, ZNF330 / RFU, GPN3 / Fold change vs veh, GPN3 / RFU, C9orf123 / Fold change vs veh, C9orf123 / RFU, N4BP2L2 / Fold change vs veh, N4BP2L2 / RFU, ARFIP1 / Fold change vs veh, ARFIP1 / RFU, FAM179B / Fold change vs veh, FAM179B / RFU, BCL10 / Fold change vs veh, BCL10 / RFU, UHRF1BP1L / Fold change vs veh, UHRF1BP1L / RFU, BET1 / Fold change vs veh, BET1 / RFU, CNOT2 / Fold change vs veh, CNOT2 / RFU, ZNF268 / Fold change vs veh, ZNF268 / Fold change vs veh, ZNF507 / RFU, DGCR2 / Fold change vs veh, DGCR2 / RFU, WDSUB1 / Fold change vs veh, WDSUB1 / Fold change vs veh, HSP90B1 /// MIR3652 / RFU, ADSS / Fold change vs veh, ADSS / RFU, GK / Fold change vs veh, GK / RFU, ZNF148 / Fold change vs veh, ZNF148 / RFU, TAF9 / Fold change vs veh, TAF9 / RFU, SLC1A5 / Fold change vs veh, SLC1A5 / RFU, SLMO2 / Fold change vs veh, SLMO2 / RFU, ABCC4 / Fold change vs veh, ABCC4 / RFU, LOC101060439 /// RAP1B / Fold change vs veh, LOC101060439 /// RAP1B / RFU, RFX7 / Fold change vs veh, RFX7 / RFU, GTPBP10 / Fold change vs veh, GTPBP10 / RFU, CNEP1R1 / Fold change vs veh, CNEP1R1 / RFU, BIVM-ERCC5 /// ERCC5 / Fold change vs veh, BIVM-ERCC5 /// ERCC5 / RFU, ILF3 / Fold change vs veh, ILF3 / RFU 11762660_at / Fold change /veh 11762660_at / RFU VCAN (11757783_s_at) / Fold change /veh VCAN (11757783_s_at) / RFU DDX43 (11728927_at) / Fold change /veh DDX43 (11728927_at) / RFU KRT8 (11758188_x_at) / Fold change /veh KRT8 (11758188_x_at) / RFU NKD1 (11759106_at) / Fold change /veh NKD1 (11759106_at) / RFU SRD5A1 (11742802_a_at) / Fold change /veh SRD5A1 (11742802_a_at) / RFU TPSAB1 /// TPSB2 (11721975_s_at) / Fold change /veh TPSAB1 /// TPSB2 (11721975_s_at) / RFU GSTM3 (11746129_a_at) / Fold change /veh GSTM3 (11746129_a_at) / RFU IL23R (11737362_x_at) / Fold change /veh IL23R (11737362_x_at) / RFU TMEM51 (11727254_a_at) / Fold change /veh TMEM51 (11727254_a_at) / RFU PIWIL2 (11732686_x_at) / Fold change /veh PIWIL2 (11732686_x_at) / RFU ORM1 (11744905_x_at) / Fold change /veh ORM1 (11744905_x_at) / RFU CCDC152 (11743942_at) / Fold change /veh CCDC152 (11743942_at) / RFU ECM1 (11717891_a_at) / Fold change /veh ECM1 (11717891_a_at) / RFU IL23R (11748794_a_at) / Fold change /veh IL23R (11748794_a_at) / RFU TNFAIP8L3 (11732012_x_at) / Fold change /veh TNFAIP8L3 (11732012_x_at) / RFU MBOAT4 (11741988_at) / Fold change /veh MBOAT4 (11741988_at) / RFU 11764193_at / Fold change /veh 11764193_at / RFU TMEM53 (11763286_at) / Fold change /veh TMEM53 (11763286_at) / RFU MAGEB2 (11727129_at) / Fold change /veh MAGEB2 (11727129_at) / RFU TMEM200A (11744735_a_at) / Fold change /veh TMEM200A (11744735_a_at) / RFU CCDC152 (11751479_a_at) / Fold change /veh CCDC152 (11751479_a_at) / RFU FAM211A (11726209_a_at) / Fold change /veh FAM211A (11726209_a_at) / RFU RGS16 (11746705_a_at) / Fold change /veh RGS16 (11746705_a_at) / RFU VCAN (11755009_s_at) / Fold change /veh VCAN (11755009_s_at) / RFU RHOB (11743442_s_at) / Fold change /veh RHOB (11743442_s_at) / RFU RGS16 (11720943_a_at) / Fold change /veh RGS16 (11720943_a_at) / RFU RGS16 (11720944_at) / Fold change /veh RGS16 (11720944_at) / RFU, VPS4B / Fold change vs veh, VPS4B / RFU, CREB1 / Fold change vs veh, CREB1 / RFU, DNAJC13 / Fold change vs veh, DNAJC13 / RFU, GNAQ / Fold change vs veh, GNAQ / RFU, CDK5R1 / Fold change vs veh, CDK5R1 / RFU, ZRANB3 / Fold change vs veh, ZRANB3 / RFU, CUL4A / Fold change vs veh, CUL4A / RFU, CCNY / Fold change vs veh, CCNY / RFU, UFL1 / Fold change vs veh, UFL1 / RFU, COG3 / Fold change vs veh, COG3 / RFU, DIAPH2 / Fold change vs veh, DIAPH2 / RFU, SKA2 / Fold change vs veh, SKA2 / RFU, AFF3 / Fold change vs veh, AFF3 / RFU, LMF1 / Fold change vs veh, LMF1 / RFU, IPO11 / Fold change vs veh, IPO11 / RFU, DFFB / Fold change vs veh, DFFB / RFU, FOXP1 / Fold change vs veh, FOXP1 / RFU, CARD8 / Fold change vs veh, CARD8 / RFU, STRN3 / Fold change vs veh, STRN3 / RFU, ADK / Fold change vs veh, ADK / RFU, RASSF2 / Fold change vs veh, RASSF2 / RFU, WIPF1 / Fold change vs veh, WIPF1 / RFU, LARP1B / Fold change vs veh, LARP1B / RFU, RASA1 / Fold change vs veh, RASA1 / RFU, RB1 / Fold change vs veh, RB1 / RFU, PPFIA1 / Fold change vs veh, PPFIA1 / RFU, MAT2A / Fold change vs veh, MAT2A / RFU, CCT5 / Fold change vs veh, CCT5 / RFU, WDR92 / Fold change vs veh, WDR92 / RFU, CUX1 / Fold change vs veh, CUX1 / RFU, TTC7A / Fold change vs veh, TTC7A / RFU, TMEM135 / Fold change vs veh, TMEM135 / RFU, DEPTOR / Fold change vs veh, DEPTOR / RFU, CPM / Fold change vs veh, CPM / RFU, DNAJB6 / Fold change vs veh, DNAJB6 / RFU, CACNA2D3 / Fold change vs veh, CACNA2D3 / RFU, DTX4 / Fold change vs veh, DTX4 / RFU, TFCP2 / Fold change vs veh, TFCP2 / RFU, GMCL1 /// GMCL1P1 / Fold change vs veh, GMCL1 /// GMCL1P1 / RFU, AEBP2 / Fold change vs veh, AEBP2 / RFU, SNHG1 /// SNORD22 /// SNORD25 /// SNORD26 /// SNORD27 /// SNORD28 /// SNORD29 /// SNORD31 / Fold change vs veh, SNHG1 /// SNORD22 /// SNORD25 /// SNORD26 /// SNORD27 /// SNORD28 /// SNORD29 /// SNORD31 / Fold change (Aza/veh), C12orf56 (ProbeSet 11735607_a_at) / Fold change (ACY-1035/veh), C12orf56 (ProbeSet 11735607_a_at) / Fold change (Aza/veh), FGFR1OP (ProbeSet 11751329_s_at) / Fold change (ACY-1035/veh), FGFR1OP (ProbeSet 11751329_s_at) / Fold change (Aza/veh), VPS36 (ProbeSet 11739960_a_at) / Fold change (ACY-1035/veh), VPS36 (ProbeSet 11739960_a_at) / RFU SYPL1 (11715823_x_at) / Fold change /veh SYPL1 (11715823_x_at) / RFU IGFBP7 (11715501_s_at) / Fold change /veh IGFBP7 (11715501_s_at) / RFU REEP3 (11722064_at) / Fold change /veh REEP3 (11722064_at) / RFU IGLL1 (11728026_x_at) / Fold change /veh IGLL1 (11728026_x_at): dose or concentration left out as unconfirmed
Details: ProbeSet 11741311_a_at; LIST B

Structure (SMILES): Nc1ncn([C@@H]2O[C@H](CO)[C@@H](O)[C@H]2O)c(=O)n1 [azacitidine]
- RFU, ZNF655: 32.83 RFU
